Assay results: patent US12729458B2, “Discovery and evolution of biologically active metabolites” (The Regents of the University of Colorado, a Body Corporate, priority 2020, dated 2026)
Like-named read-outs stand apart in the source and are kept apart here.

How the values were obtained:
PTP1B [1] = target: T1, PTP1B (Homo sapiens, UniProt P18031); assay: X-ray crystallography of PTP1B soaked with ligand; assay type: binding, H. sapiens
T1 construct: In this study, we used a well-studied truncation variant (i.e., PTP1B1-321); His-tag; made in house; host or cells: E. coli BL21 (DE3), pET21b
T1 sequence (P18031 1-321): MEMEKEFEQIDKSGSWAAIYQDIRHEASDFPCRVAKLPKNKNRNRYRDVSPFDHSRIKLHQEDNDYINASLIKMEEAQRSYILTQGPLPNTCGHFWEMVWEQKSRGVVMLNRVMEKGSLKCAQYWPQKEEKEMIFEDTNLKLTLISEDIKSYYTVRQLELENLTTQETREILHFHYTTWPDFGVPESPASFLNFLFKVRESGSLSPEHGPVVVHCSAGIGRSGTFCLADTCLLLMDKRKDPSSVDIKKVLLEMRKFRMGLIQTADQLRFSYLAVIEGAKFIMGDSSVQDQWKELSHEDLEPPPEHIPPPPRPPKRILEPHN
Experimental: X-ray crystallography. We prepared crystals of PTP1B by using hanging drop vapor diffusion. In brief, we added 2 μL of PTP1B (~600 μM PTP1B, 50 mM HEPES, pH 7.3) to 6 μL of crystallization solution (100 mM HEPES, 200 mM magnesium acetate, and 14% polyethylene glycol 8000, pH 7.5) and incubated the resulting droplets over crystallization solution for one week at 4° C. (EasyXtal CrystalSupport, Qiagen). We soaked crystals with ligand by transferring them to droplets formed with 6 μL of crystallization solution and 1 μL of ligand solution (10 mM in DMSO), which we incubated for 2-5 days at 4° C. We prepared all […] for freezing by soaking them in cryoprotectant formed from a 70/30 (v/v) mixture of buffer (100 mM HEPES, 200 mM magnesium acetate, and 25% polyethylene glycol 8000, pH 7.5) and glycerol.
We collected X-ray diffraction data through the Collaborative Crystallography Program at Lawrence Berkeley National Lab (ALS ENABLE, beamline 8.2.1, 100 K, 1.00003 Å). We performed integration, scaling, and merging of X-ray diffraction data using the xia2 software package^79, and we carried out molecular replacement and structure refinement with the PHENIX graphical interface,^80 supplemented with manual model adjustment in COOT^81 and one round of PDB-REDO^82 (the latter, only for the PTP1B-AD complex).

PTP1B [2] = target: T1, PTP1B; assay type: cell-based, H. sapiens; conditions: terpenoid produced in the cell by its metabolic pathway
SHP2 (SHP2223-565) = target: T2, SHP2 (SHP2223-565) (Homo sapiens, UniProt Q06124); assay: SHP2-catalyzed hydrolysis of 4-MUP in the presence of terpenoids; assay type: biochemical, H. sapiens; conditions: for Ki: SHP2223-565
T2 construct: made in house; host or cells: E. coli BL21 (DE3)
T2 sequence (Q06124 223-565 limits assumed): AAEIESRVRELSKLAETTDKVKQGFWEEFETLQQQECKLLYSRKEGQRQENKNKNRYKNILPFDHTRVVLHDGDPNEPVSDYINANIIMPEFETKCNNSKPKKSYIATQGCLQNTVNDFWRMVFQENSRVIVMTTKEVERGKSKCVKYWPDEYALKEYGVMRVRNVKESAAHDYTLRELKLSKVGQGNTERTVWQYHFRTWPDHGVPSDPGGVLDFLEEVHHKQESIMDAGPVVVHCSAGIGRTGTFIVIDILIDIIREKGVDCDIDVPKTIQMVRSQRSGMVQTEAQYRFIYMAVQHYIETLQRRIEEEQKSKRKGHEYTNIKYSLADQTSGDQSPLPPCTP
Experimental: Enzyme kinetics. To examine terpenoid-mediated inhibition, we measured PTP-catalyzed hydrolysis of p-nitrophenyl phosphate (pNPP) or 4-methylumbelliferyl phosphate (4-MUP, used when KM for pNPP was large) in the presence of various concentrations of terpenoids. Each reaction included PTP (0.05 μM PTP1B/TCPTP or 0.1 μM SHP1/SHP2 in 50 mM HEPES, 0.5 mM TCEP, 50 μg/ml BSA), pNPP (0.33, 0.67, 2, 5, 10, and 15 mM) or 4-MUP (0.13, 0.27, 0.8, 2.27, 2.93, 4.53, 7.07, and 8 mM), inhibitor (with concentrations listed in the figures), buffer (50 mM HEPES pH=7.3, 50 μg/ml BSA), and DMSO at 10% v/v. We monitored the formation of p-nitrophenol by measuring absorbance at 405 nm every 10 seconds for 5 minutes on a SpectraMax M2 plate reader and the formation of 4-methylumbelliferyl by measuring fluorescence at 450 nm (370 nm ex, 435 nm cutoff, medium gain).
We used a custom MATLAB script to process all raw kinetic data. This script removed all concentration values that fell outside of either (i) the range of our standard curve (absorbance/fluorescence vs. μM; FIG. 39) or (ii) the initial rate regime (>10% of the pNPP or 4-MUP concentration used in the assay). When this step reduced kinetic dataset to fewer than ten points, we re-measured those datasets to collect at least ten. We fit final datasets, in turn, with a linear regression model (using Matlab's backslash operator).
We evaluated kinetic models in three steps: (i) We fit initial-rate measurements collected in the absence and presence of inhibitors to Michaelis-Menten and inhibition models, respectively (here, we used the nlinfit and fminsearch functions from MATLAB; TABLE 12). (ii) We used an F-test to compare the mixed model to the single-parameter model with the least sum squared error (here, we used the fedf function from MATLAB to assign p-values), and we accepted the mixed model when p<0.05. (iii) We used the Akaike's Information Criterion (AIC) to compare the best-fit single parameter model to each alternative single parameter model, and we accepted the “best-fit” model when the difference in AIC (Δi) exceed 5 for all comparisons.^78 We note: For AD, AB, and (+) 1-(10),4-cadinadiene this criterion was not met; both noncompetitive and uncompetitive models, however, yielded indistinguishable ICso's.
We used the MATLAB function “nlparci” to determine the confidence intervals of kinetic parameters, and we propagated those intervals to estimate corresponding confidence intervals for each IC50.

| SMILES | binding site on PTP1B (crystal structure) (PTP1B [1]; crystal soaked with ligand, pdb entry 6W30) | survival of E. coli with PTP1B B2H system on spectinomycin (PTP1B [2]) | potency against SHP2 relative to PTP1B (SHP2 (SHP2223-565); 4-MUP, less potent on SHP2) | Ki (SHP2 (SHP2223-565); competitive model of inhibition, read-out: Fit par. Ki, competitive model) | Ki (SHP2 (SHP2223-565); mixed model, competitive constant, read-out: Fit par. Ki,c, mixed model) | Ki (SHP2 (SHP2223-565); mixed model, uncompetitive constant, read-out: Fit par. Ki,u, mixed model) | Ki (SHP2 (SHP2223-565); noncompetitive model of inhibition, read-out: Fit par. Ki, noncompetitive model) | Ki (SHP2 (SHP2223-565); uncompetitive model of inhibition, read-out: Fit par. Ki, uncompetitive model) | solubility (crystal soaking experiments) (PTP1B [1]) | inhibition of SHP2 (SHP2 (SHP2223-565); 4-MUP) | % inhibition of SHP2 (SHP2 (SHP2223-565); at the solubility limit, 4-MUP) |
| --- | --- | --- | --- | --- | --- | --- | --- | --- | --- | --- | --- |
| C=C(C)[C@@H]1CC[C@@H](C)[C@@H]2CCC(C)=C[C@@H]21 [amorphadiene] | binds to the same allosteric site targeted by benzbromarone derivatives | permitted survival at high concentrations of antibiotic | three-fold | 25.1 µM | 236 µM | 132 µM | 146 µM | 117 µM | – | – | – |
| CC(C)=CCC=C(C)C1CC=C(C)CC1 (stereo not drawn) [α-bisabolene] | – | permitted survival at high concentrations of antibiotic | – | – | – | – | – | – | poor solubility | low potency | ≤ 25% |
